Results on 7 molecules are retold here after ChEMBL document CHEMBL4177721, “Synthesis, antitumor activity, and cytotoxicity of 4-substituted 1-benzyl-5-diphenylstibano-1H-1,2,3-triazoles” (Bioorg Med Chem Lett, 2018).

Series [1] concerns HL-60. Nature of the series: Antitumor activity against human HL60 cells at 0.5 uM incubated for 72 hrs by MTT assay. Type of series: functional, cell-based. (Tetrazolium dyes change colour on reduction, which living cells bring about.)
Series [2] has as its system KB. The experiment in a line: Antitumor activity against human KB cells at 0.5 uM incubated for 72 hrs by MTT assay. Type of series: functional, cell-based.
Series [3] has as its system P388. Nature of the series: Antitumor activity against mouse P388 cells at 0.5 uM incubated for 72 hrs by MTT assay. Type of series: functional, cell-based.
Series [4] has as its system NUGC-3. The experiment in a line: Antitumor activity against human NUGC3 cells at 0.5 uM incubated for 72 hrs by MTT assay. Type of series: functional, cell-based.
Series [5] deals with HT-1080. Nature of the series: Antitumor activity against human HT1080 cells at 0.5 uM incubated for 72 hrs by MTT assay. Type of series: functional, cell-based.
The test system of series [6] is B16-F10. The experiment in a line: Antitumor activity against mouse B16F10 cells at 0.5 uM incubated for 72 hrs by MTT assay. The series is classed as functional, cell-based.
Series [7] relates to MCF7. The experiment in a line: Antitumor activity against human MCF7 cells at 0.5 uM incubated for 72 hrs by MTT assay. Type of series: functional, cell-based.
Series [8] has as its system DLD-1. Nature of the series: Antitumor activity against human DLD1 cells at 0.5 uM incubated for 72 hrs by MTT assay. The series is classed as functional, cell-based.
For series [9], the system named is MCF7. The experiment in a line: Antitumor activity against human MCF7 cells incubated for 72 hrs by MTT assay. The conditions noted are these: MCF7, 72 h. Type of series: functional, cell-based.
Series [10] relates to B16-F10. Nature of the series: Antitumor activity against mouse B16F10 cells incubated for 72 hrs by MTT assay. The series is classed as functional, cell-based. The conditions noted are these: B16-F10, 72 h.
Series [11] has as its system P388. The experiment in a line: Antitumor activity against mouse P388 cells incubated for 72 hrs by MTT assay. The series is classed as functional, cell-based. The conditions noted are these: P388, 72 h.
The nature of series [12]: Cytotoxicity against bovine aorta vascular endothelial cells assessed as reduction in cell viability incubated for 24 hrs by MTT assay. The series is classed as cell-based, Bos taurus. The conditions noted are these: cattle.
Series [13] relates to HT-1080. Nature of the series: Antitumor activity against human HT1080 cells incubated for 72 hrs by MTT assay. The conditions noted are these: HT-1080, 72 h. The series is classed as functional, cell-based.
Series [14] relates to HL-60. The experiment in a line: Antitumor activity against human HL60 cells incubated for 72 hrs by MTT assay. The conditions noted are these: HL-60, 72 h. The series is classed as functional, cell-based.
The test system of series [15] is KB. Nature of the series: Antitumor activity against human KB cells incubated for 72 hrs by MTT assay. The series is classed as functional, cell-based.
Series [16] has as its system DLD-1. The experiment in a line: Antitumor activity against human DLD1 cells incubated for 72 hrs by MTT assay. Type of series: functional, cell-based. The conditions noted are these: DLD-1, 72 h.
For series [17], the system named is NUGC-3. Nature of the series: Antitumor activity against human NUGC3 cells incubated for 72 hrs by MTT assay. The series is classed as functional, cell-based. The conditions noted are these: NUGC-3, 72 h.

Active and inactive are the calls of the source. The rule behind the calls is not given here.

With “1-Benzyl-4-(p-tolyl)-5-(diphenylstibano)-1H-1,2,3-triazole”, the outcome with HL-60 [1], in the series with KB [2], with P388 [3], in the series on NUGC-3 [4], in the series with HT-1080 [5] and with B16-F10 [6] was Active. Further, the result in the series with MCF7 [7] and in the series on DLD-1 [8] was Active.
The IC50 is the concentration that gives 50% inhibition. Read a high IC50 as weaker potency in that assay. A word on the CC50: it is the concentration that lowers cell viability or growth by half. As to `FC(F)(F)c1ccc(-c2cn(Cc3ccccc3)nn2)cc1`, the concentration for half-maximal inhibition (IC50) in the series on MCF7 [9] was found to be 162 µM; with B16-F10 [10], 35.4 µM; in the series on P388 [11] it was 17.5 µM; in the series with HT-1080 [13] it was 57.7 µM; with HL-60 [14], 171 µM; in the series on KB [15], 60.2 µM. Further, the results for the IC50 with DLD-1 [16] and in the series with NUGC-3 [17] were 74.3 µM and 81 µM, respectively. Besides, the CC50 at 24 h in series [12] is greater than 100 µM.
On to `COc1ccc(-c2cn(Cc3ccccc3)nn2)cc1`, for which the IC50 in the series with MCF7 [9] is 231 µM; with B16-F10 [10] it was 88.5 µM; in the series on P388 [11] it was 83.8 µM; in the series on HT-1080 [13], 146 µM; in the series with HL-60 [14], greater than 100 µM; in the series on KB [15], 86.6 µM. For the same molecule, the IC50 in the series with DLD-1 [16] was 139 µM; in the series on NUGC-3 [17], 158 µM. Further, the CC50 at 24 h in [12] is greater than 100 µM.
`C1=C(c2cn(Cc3ccccc3)nn2)CCCC1`: the IC50 in the series on MCF7 [9] was greater than 100 µM; in the series with B16-F10 [10] it was 45.5 µM; in the series on P388 [11] it was 49.6 µM; in the series with HT-1080 [13], 219 µM; with HL-60 [14] it was 171 µM; with KB [15] it was greater than 100 µM. The IC50 in the series with DLD-1 [16] and with NUGC-3 [17] was greater than 100 µM throughout. In addition, the CC50 at 24 h in series [12] is greater than 100 µM.
As to `Cc1ccc(-c2cn(Cc3ccccc3)nn2)cc1`, the IC50 is 253 µM in the series with MCF7 [9]; 66.4 µM in the series on B16-F10 [10]; 94.1 µM with P388 [11]; 84.4 µM in the series on HT-1080 [13]; greater than 100 µM in the series with HL-60 [14]; 79.5 µM in the series on KB [15]. For the same molecule, the figures for the IC50 with DLD-1 [16] and in the series on NUGC-3 [17] were 102 µM and 129 µM, respectively. Also, the CC50 at 24 h in series [12] is greater than 100 µM.
Regarding `CCCCc1cn(Cc2ccccc2)nn1`, the IC50 is greater than 100 µM in the series on MCF7 [9]; 421 µM in the series on B16-F10 [10]; 217 µM in the series on P388 [11]; greater than 100 µM in the series on HT-1080 [13]; greater than 100 µM in the series with HL-60 [14]; greater than 100 µM with KB [15]. For the same molecule, the IC50 in the series with DLD-1 [16] and in the series with NUGC-3 [17] was greater than 100 µM each time. Besides, in [12], the CC50 at 24 h is greater than 100 µM.
Consider `c1ccc(Cn2cc(-c3ccccc3)nn2)cc1`, for which the IC50 in the series on MCF7 [9] was 490 µM; in the series with B16-F10 [10], 96.1 µM; with P388 [11] it was 99.1 µM; in the series on HT-1080 [13], 651 µM; in the series on HL-60 [14], greater than 100 µM; in the series on KB [15], greater than 100 µM. Also, the values for the IC50 with DLD-1 [16] and in the series with NUGC-3 [17] were greater than 100 µM and 836 µM, respectively. In addition, the CC50 at 24 h in [12] was greater than 100 µM.
